Experimental data as given in ChEMBL document CHEMBL1147599 (Bioorg Med Chem Lett, 2004).

Target: T1, Neuropeptide Y receptor type 2 (Homo sapiens, UniProt P49146)
T1 sequence (P49146 whole entry): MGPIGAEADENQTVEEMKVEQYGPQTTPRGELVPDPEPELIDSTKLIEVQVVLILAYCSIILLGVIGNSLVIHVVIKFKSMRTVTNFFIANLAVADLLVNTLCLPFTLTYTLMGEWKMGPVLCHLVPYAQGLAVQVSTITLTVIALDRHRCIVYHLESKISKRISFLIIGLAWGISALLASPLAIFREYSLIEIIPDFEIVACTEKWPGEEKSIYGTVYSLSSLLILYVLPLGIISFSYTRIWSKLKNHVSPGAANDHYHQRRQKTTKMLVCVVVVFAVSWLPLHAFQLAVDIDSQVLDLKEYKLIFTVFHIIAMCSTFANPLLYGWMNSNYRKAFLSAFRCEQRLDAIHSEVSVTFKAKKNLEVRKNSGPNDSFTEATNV
Experiment: Binding affinity towards the NPY Y2 receptor

Compound | IC50
CC(=O)N1CCc2ccc(N(C(=O)/C=C/c3ccccc3)C3CCN(Cc4ccccc4)C3)cc21 (stereo not drawn) | 17.5 µM
CC(=O)N1CCc2ccc(N(C/C=C/c3ccccc3)C3CCN(Cc4ccccc4)CC3)cc21 | 30 µM
CC(=O)N1CCc2ccc(N(C3CCN(Cc4ccccc4)CC3)S(=O)(=O)/C=C/c3ccccc3)cc21 | 30 µM
